Results from patent publication US10428028B2, “HDAC inhibitors” (BIOMARIN PHARMACEUTICAL INC., priority 2013, dated 2019).
Like-named read-outs stand apart in the source and are kept apart here.

Assays:
[1] = set-up: dose or concentration left out as unconfirmed; conditions: male rats, oral, 78 weeks, cited from earlier work
[2] = rats, subcutaneous, cited from earlier work
HDAC1 = HDAC1 (Homo sapiens (Human), UniProt Q13547); assay: HDAC enzyme inhibition assay (Fluor-de-Lys), HDAC1; assay type: biochemical; conditions: 2 hours pre-incubation
Chain of HDAC1 (Q13547 whole entry): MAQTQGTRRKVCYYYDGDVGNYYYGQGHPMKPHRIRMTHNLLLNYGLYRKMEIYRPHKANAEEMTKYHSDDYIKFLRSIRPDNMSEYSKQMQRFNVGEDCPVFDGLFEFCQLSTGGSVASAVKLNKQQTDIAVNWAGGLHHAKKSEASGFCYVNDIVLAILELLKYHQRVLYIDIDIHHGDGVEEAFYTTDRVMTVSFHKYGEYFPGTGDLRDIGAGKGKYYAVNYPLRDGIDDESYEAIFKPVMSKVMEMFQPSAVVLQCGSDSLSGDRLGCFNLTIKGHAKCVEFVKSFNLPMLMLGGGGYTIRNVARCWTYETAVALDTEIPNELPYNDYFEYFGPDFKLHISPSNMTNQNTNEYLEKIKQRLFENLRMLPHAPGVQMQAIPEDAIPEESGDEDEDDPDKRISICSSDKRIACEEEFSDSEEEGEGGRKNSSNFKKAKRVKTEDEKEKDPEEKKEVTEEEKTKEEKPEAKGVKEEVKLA
Protocol: (§1) The HDAC activity inhibition assay was performed as follows to determine the ability of a test compound to inhibit HDAC enzymatic activity. Serial dilutions of HDAC inhibitors were prepared in HDAC assay buffer (25 mM Tris/HCl, pH 8.0, 137 mM NaCl, 2.7 mM KCl, 1 mM MgCl2, pH 8) in 96-well assay plates (Fisher scientific, #07-200-309) and were pre-incubated for 2 hours at room temperature in the presence of 125 μg/ml BSA and purified HDAC1 (BPS Bioscience, San Diego, Calif., #50051), HDAC2 (BPS Bioscience, #50053), or HDAC3/NcoR2 (BPS Bioscience, #50003) at concentrations of 1.25, 1.32, and 0.167 μg/mL, respectively. Following pre-incubation, Fluor-de-Lys™ substrate (Enzo Life Sciences, Plymouth Meeting, Pa., BML-KI104-0050) was added to a final concentration of 10 μM and plates were further incubated for 30 minutes at room temperature. The enzymatic reaction was stopped by addition of Trichostatin A (Sigma-Aldrich, St Louis, Mo., #T8552, final concentration: 100 nM) and trypsin (MP Biomedicals, Solon, Ohio, #02101179) was added to reach a final concentration of 100 μg/mL. After a 15 minute incubation at room temperature, fluorescence was recorded using a Spectramax M2 fluorometer (Molecular Devices, Sunnyvale, Calif.) with excitation at 365 nm and emission at 460 nm. IC50 values were calculated by using a sigmoidal dose-response (variable slope) equation in GraphPad Prism® 5 for Windows (GraphPad Software, La Jolla, Calif.). Results for selected compounds in the HDAC activity inhibition assay are presented in Table 5 (IC50 ranges: IA>20 μM, A<1 μM, 1<B<5 μM, 5<C<10 μM, 10<D<20 μM, ND: not determined).

HDAC2 = HDAC2 (Homo sapiens (Human), UniProt Q92769); assay: HDAC enzyme inhibition assay (Fluor-de-Lys), HDAC2; assay type: biochemical; conditions: 2 hours pre-incubation
Chain of HDAC2 (Q92769 whole entry): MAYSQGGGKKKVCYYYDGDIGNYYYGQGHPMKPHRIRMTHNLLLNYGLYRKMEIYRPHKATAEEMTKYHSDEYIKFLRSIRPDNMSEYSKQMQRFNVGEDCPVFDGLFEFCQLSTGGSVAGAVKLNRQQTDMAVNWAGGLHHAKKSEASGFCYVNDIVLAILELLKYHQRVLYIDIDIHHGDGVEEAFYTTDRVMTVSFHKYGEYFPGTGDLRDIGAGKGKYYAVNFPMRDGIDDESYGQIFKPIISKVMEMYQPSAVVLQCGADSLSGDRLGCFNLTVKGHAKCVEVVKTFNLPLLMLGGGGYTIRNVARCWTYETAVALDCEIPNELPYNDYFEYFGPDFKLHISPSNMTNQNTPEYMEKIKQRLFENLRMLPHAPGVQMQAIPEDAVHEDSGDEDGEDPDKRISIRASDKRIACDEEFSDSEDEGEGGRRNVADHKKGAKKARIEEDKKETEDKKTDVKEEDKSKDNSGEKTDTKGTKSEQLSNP
Protocol: as §1

HDAC3/NcoR2 = HDAC3/NcoR2 (Homo sapiens (Human), UniProt O15379); assay: HDAC enzyme inhibition assay (Fluor-de-Lys), HDAC3/NcoR2; assay type: biochemical; conditions: HDAC3/NcoR2, 2 hours pre-incubation
Chain of HDAC3/NcoR2 (O15379 whole entry): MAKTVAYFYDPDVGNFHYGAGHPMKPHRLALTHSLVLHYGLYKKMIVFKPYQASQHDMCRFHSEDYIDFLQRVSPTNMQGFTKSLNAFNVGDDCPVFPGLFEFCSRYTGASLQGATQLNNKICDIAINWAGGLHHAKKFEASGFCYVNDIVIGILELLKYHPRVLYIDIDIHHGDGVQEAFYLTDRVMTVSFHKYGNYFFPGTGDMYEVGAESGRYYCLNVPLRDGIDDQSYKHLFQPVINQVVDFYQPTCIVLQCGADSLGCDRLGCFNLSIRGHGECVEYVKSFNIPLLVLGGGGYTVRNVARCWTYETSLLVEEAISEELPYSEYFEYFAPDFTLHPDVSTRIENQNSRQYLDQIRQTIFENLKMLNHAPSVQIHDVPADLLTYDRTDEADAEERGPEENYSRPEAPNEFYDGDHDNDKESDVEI
Chain of HDAC3/NcoR2 (Q9Y618 395-489 partner): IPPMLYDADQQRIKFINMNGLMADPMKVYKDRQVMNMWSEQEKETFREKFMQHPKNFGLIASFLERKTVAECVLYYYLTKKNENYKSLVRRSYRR
Protocol: as §1

[3] = Brain penetration studies; assay type: in vivo; conditions: C57/BL6/J, mouse; mice, s.c. 5 or 50 mg/kg or i.v. 5 mg/kg; Cmax(brain)/Cmax(plasma); read-out: BPR (brain/plasma ratio)
Protocol: Test compounds were prepared at either 0.5 mg/ml or 5 mg/ml in 30% hydroxypropyl-β-cyclodextrin, 100 mM sodium acetate pH 5.5, 5% DMSO. C57/BL6/J mice were dosed s.c. at 5 mg/kg or 50 mg/kg, or i.v. at 5 mg/kg. Animals were euthanized at pre-dose, 5, 15, 30 min, 1, 2 and 4 hours post-dose and plasma and brain obtained. Three animals per dose per time points were used. The levels of compound in the plasma and brain were determined by standard LC/MS/MS methods. Brain/plasma ratio (BPR) was calculated as the ratio of the Cmax(brain)/Cmax(plasma). The results are shown in Table 5, where IA corresponds to a BPR less than 0.1, D is between 0.1 and 0.2, C is 0.2 to 0.5, B comprises 0.5 to 1 and A is greater than 1.

[4] = Hepatocyte stability and metabolism (parent remaining, acid and OPD formation); assay type: in vitro ADME; conditions: human hepatocytes; for % left 6H Hum hep: 5 μM; for OPD: OPD formation by LC-MS/MS after phenylglyoxal derivatisation
Protocol: The inventors have found, however, that formula (I) compound metabolites are substantially free of OPD when formula (I) compounds are subjected to conditions intended to mimic in vivo metabolism pathways. As used herein, the term “substantially free of OPD” means that OPD was not detected by LC-MS/MS after (i) incubating a formula (I) compound with human, monkey, dog and rat hepatocytes and (ii) treating the metabolite milieu with an acidic solution of phenylglyoxal in an organic solvent (this addition leads to quantitative formation of 2-phenylquinoxaline, which can be easily quantified with a low lower limit of quantitation (LLOQ)). See the Examples section.
To assess the stability and metabolism of RGFP compounds and to quantify the metabolites in hepatocytes. This assay was designed to evaluate the metabolism of RGFP compounds, following their incubation with human, monkey, dog and rat hepatocytes by monitoring either parent drug disappearance or metabolite appearance using LC-MS/MS. The results are shown in Table 5 ((% Left in Hep: IA<10%, 50%<A, 50%>B>30%, 30%>C>10%, ND: not determined).
Procedure: Turn on the water-bath heater to 37° C. Take out the KHB buffer and make sure it is at room temp before use. Prepare 2.5 mM concentration of RGFP compound in DMSO stock. Add 10 μL of above DMSO stock to 2490 μL KHB buffer; final concentration of RGFP compound will be 10 μM. Pre-warm 45 ml InVitro HT Medium to 37° C. in a sterile 50 ml conical tube. Add 1.0 mL Torpedo Antibiotic Mix per 45 mL InVitro HT medium. Transfer 13 mL of warm HT medium with Antibiotic Mix into a 15 mL conical tube. Carefully remove the hepatocyte vials from liquid nitrogen (liquid phase). Immediately immerse the vial into a 37° C. water bath. Shake gently until the ice melts entirely. […] Immediately empty contents of the vial into 13 ml of pre-warmed InVitro HT Medium with antibiotics. Rinse the vial with the HT media just transferred the hepatocytes to, in order to ensure complete transfer. Centrifuge the cell suspension at 600 RPM for 5 minutes at room temperature. […] Add 1.0 ml of KHB (at room temperature) buffer to the tube of hepatocyte pellet. Loosen the cell pellet by gently swirling the centrifuge tube. Transfer 100 μL of above solution to a different tube and add 900 μL of KHB buffer to count the cells. Determine the total cell count and the number of viable cells using the Trypan Blue exclusion method. Once the cell count is obtained, multiply the number by 10 (attributing to the dilution factor). Add required volume of KHB buffer to the tube containing hepatocytes such that the final count will be 2 million cells/mL. Dispense 50 μL of 2 million cells/ml to a 96 well plate and then add 50 μl of DMSO stock to respective wells (such that, the concentration of RGFP compounds is 5 μM and number of cells are 100000 in each well). Place the plates on a shaker in a 37° C. incubator with 5% CO2. Separate plates for each time point are advisable (Time points: 0 h, 1 h, 2 h, and 6 h). After each time point, add 100 μL of quenching solution. Quenching solution is an acetonitrile solution containing RGFP531 (10 μM) internal standard, 0.1% formic acid and phenylglyoxol (400 μM). The formic acid and phenylglyoxal is used for the identification and quantification of OPD as mentioned above. Pipette up and down a few times to ensure a complete stop of reaction. Transfer all the solution into a 1.5 ml tube, vortex thoroughly, and centrifuge at 14000 RPM at 4° C. for 5 minutes to precipitate cell debris. Transfer the 150 μL of supernatant to vials for analysis on LC-MS/MS.
LC-MS/MS parameters for RGFP compounds and metabolites including OPD: LC-MS/MS Parameters for API 2000 QTrap: System: HPLC 1100; Column: Gemini C18, 5 μM 4.6×50 mm; Column Temp: Ambient; MS: API 2000 QTrap (MI mode); Mobile Phase A: HPLC water with 0.05% Formic Acid; Mobile Phase B: Acetonitrile with 0.05% Formic Acid.

[5] = Acid stability determination; assay type: physicochemical; conditions: 0.01 M HCl, 50° C., 100 μM
Protocol: A 100 μM solution of test compound was prepared by dilution of a 10 mM DMSO stock solution in a 0.01 M solution of HCl in deionized water. Immediately after mixing, an aliquot (100 μL) was sampled and analyzed by HPLC/UV. The area under the compound peak was determined and used as the time zero reference point. The remainder of the acid sample was incubated at 50° C. and samples were taken after 2, 4, and 24 hours of incubation. On a few occasions, samples were taken at 30 rather than 24 hours. These were analyzed by the same HPLC/UV method and the area of the peak corresponding to the test compound was measured. Percent remaining at a given time point was then calculated as the ratio of the area under the peak after incubation to that at time zero times 100. In those cases where a 30 hour time point was recorded, the percent remaining at 24 hours was obtained by interpolation of the percent remaining versus time curve assuming a unimolecular process, i.e. a monoexponential decay. Percent remaining after 24 hours incubation are presented in Table 5 below, where A corresponds to more than 60%, B is between 40 and 60%, C covers 20 to 40% and D means less than 20%.

| SMILES | rats with liver tumors ([1]; 8000 low dose) | rats with liver tumors ([1]; 16000 high dose) | tumors ([2]; 45 mg/kg every second day for 11 months) | tumors ([2]; 90 mg/kg every second day for 5 months) | IC50 (HDAC1) [nM] | IC50 (HDAC2) [nM] | IC50 (HDAC3/NcoR2) [nM] | Kp [3] | % left 6H Hum hep [4] | OPD [4] | Acid Stability % Left 24 hr [5] |
| --- | --- | --- | --- | --- | --- | --- | --- | --- | --- | --- | --- |
| Nc1ccccc1N [OPD, o-phenylenediamine] | 5 out of 17 | 5 out of 16 | not detected | not detected | – | – | – | – | – | – | – |
| Nc1cc(F)ccc1NC(=O)c1ccc2c(cnn2Cc2ccc(F)c(F)c2)c1 [Compound A10] | – | – | – | – | < 1000 | < 1000 | < 1000 | > 1 | C (30%>C>10%) | No OPD | C (C covers 20 to 40%) |
| Nc1ccccc1NC(=O)c1ccc2c(cnn2CC2CC2)c1 [Compound A11] | – | – | – | – | < 1000 | < 1000 | < 1000 | 0.2 to 0.5 | B (50%>B>30%) | No OPD | B (B is between 40 and 60%) |
